The record followed here is ChEMBL document CHEMBL5241097, “Synthetically-tailored and nature-derived dual COX-2/5-LOX inhibitors: Structural aspects and SAR” (Eur J Med Chem, 2021).

Assay [1] deals with T1, Prostaglandin G/H synthase 2 (Homo sapiens, UniProt P35354).
T1 sequence (P35354 whole entry): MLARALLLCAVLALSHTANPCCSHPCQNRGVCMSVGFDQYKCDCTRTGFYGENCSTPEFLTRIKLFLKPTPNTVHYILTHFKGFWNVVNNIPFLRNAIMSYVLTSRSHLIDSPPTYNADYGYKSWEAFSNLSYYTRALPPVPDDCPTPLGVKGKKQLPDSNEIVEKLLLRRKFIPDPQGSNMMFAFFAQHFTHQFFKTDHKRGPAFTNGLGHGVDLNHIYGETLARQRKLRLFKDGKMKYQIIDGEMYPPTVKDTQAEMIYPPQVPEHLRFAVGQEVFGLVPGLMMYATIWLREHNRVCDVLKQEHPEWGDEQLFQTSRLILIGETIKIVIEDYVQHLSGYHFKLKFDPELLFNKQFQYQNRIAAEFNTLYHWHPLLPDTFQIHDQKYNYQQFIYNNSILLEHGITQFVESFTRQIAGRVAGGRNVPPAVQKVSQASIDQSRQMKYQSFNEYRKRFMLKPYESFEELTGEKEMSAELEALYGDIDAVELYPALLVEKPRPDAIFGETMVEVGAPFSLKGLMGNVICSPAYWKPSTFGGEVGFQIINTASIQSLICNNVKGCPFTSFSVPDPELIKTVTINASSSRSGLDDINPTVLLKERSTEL
Description: Inhibition of COX-2 (unknown origin) using arachidonic acid as substrate preincubated for 15 mins followed by substrate addition by colorimetric assay.

Assay [2] is described as follows: Inhibition of soybean 5-LOX using linoleic acid as substrate by spectrophotometric analysis. Also on record: species or system Glycine max.
The target of assay [3] is T1, Prostaglandin G/H synthase 2. In words: Inhibition of recombinant human COX-2 using arachidonic acid as substrate preincubated for 10 mins followed by substrate addition and measured after 2 mins by Ellman's reagent based ELISA. Background: In Ellman's method for cholinesterases, released thiocholine reacts with DTNB.
The target in assay [4] is T2, Polyunsaturated fatty acid 5-lipoxygenase (Homo sapiens, UniProt P09917).
T2 sequence (P09917 whole entry): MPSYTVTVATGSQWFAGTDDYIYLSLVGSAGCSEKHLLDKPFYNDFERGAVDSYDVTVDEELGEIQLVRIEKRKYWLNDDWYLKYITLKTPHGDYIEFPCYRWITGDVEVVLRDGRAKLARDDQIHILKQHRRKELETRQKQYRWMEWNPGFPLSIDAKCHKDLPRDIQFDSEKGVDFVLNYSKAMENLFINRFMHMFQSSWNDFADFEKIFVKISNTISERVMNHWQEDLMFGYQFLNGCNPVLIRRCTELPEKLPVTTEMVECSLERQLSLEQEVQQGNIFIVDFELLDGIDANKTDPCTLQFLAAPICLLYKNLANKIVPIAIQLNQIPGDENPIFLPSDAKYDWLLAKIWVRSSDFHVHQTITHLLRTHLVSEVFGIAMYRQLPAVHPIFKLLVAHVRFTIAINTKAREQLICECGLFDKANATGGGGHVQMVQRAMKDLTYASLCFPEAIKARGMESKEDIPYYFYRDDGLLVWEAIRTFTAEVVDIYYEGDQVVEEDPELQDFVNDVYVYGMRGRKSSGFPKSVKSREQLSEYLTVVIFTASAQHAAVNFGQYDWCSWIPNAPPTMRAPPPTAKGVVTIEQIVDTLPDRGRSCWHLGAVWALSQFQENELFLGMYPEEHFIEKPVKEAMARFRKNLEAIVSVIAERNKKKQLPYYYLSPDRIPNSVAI
In words: Inhibition of recombinant human 5-LOX using arachidonic acid as substrate incubated for 10 mins by spectrophotometric analysis.

In assay [5] the target is T1, Prostaglandin G/H synthase 2. Description: Inhibition of COX-2 (unknown origin).
For assay [6], the target named is T2, Polyunsaturated fatty acid 5-lipoxygenase. Description: Inhibition of 5-LOX (unknown origin) by fluorometric analysis.
The target in assay [7] is T1, Prostaglandin G/H synthase 2. Description: Inhibition of recombinant human COX-2 using arachidonic acid as substrate by ELISA.
The target of assay [8] is Prostaglandin G/H synthase 1 (Homo sapiens, UniProt P23219). In words: Inhibition of recombinant human COX-1 using arachidonic acid as substrate by ELISA. A general note: In an ELISA, binding on a coated surface is turned into a signal by an enzyme label.
Chain of Prostaglandin G/H synthase 1 (P23219 whole entry): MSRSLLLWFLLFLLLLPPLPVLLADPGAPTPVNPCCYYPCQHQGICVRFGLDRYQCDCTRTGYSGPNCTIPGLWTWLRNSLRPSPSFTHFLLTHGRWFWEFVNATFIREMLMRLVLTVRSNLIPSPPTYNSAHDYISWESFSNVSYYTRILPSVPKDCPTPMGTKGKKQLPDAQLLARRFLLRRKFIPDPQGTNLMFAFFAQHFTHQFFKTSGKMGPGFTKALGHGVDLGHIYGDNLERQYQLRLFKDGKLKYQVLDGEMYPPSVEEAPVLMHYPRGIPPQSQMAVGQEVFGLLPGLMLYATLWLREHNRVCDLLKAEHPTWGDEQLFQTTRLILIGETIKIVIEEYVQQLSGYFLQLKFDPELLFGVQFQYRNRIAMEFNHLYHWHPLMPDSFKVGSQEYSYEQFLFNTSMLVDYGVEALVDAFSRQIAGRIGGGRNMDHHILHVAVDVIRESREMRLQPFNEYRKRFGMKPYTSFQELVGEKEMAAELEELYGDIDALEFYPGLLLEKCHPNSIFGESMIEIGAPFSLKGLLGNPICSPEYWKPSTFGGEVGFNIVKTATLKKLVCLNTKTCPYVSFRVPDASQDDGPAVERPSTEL
Assay [9] deals with T1, Prostaglandin G/H synthase 2. Description: Inhibition of COX-2 (unknown origin) by 2,7-dichlorofluorescein dye based spectrophotometric method.
Assay [10] addresses T2, Polyunsaturated fatty acid 5-lipoxygenase. Description: Inhibition of 5-LOX (unknown origin) by spectrophotometric method.
The target is the same in assay [11]. Description: Inhibition of recombinant human 5-LOX using arachidonic acid as substrate preincubated for 10 mins followed by substrate addition and measured after 10 mins by ELISA.
The subject of assay [12] is Rattus norvegicus. In words: Antiinflammatory activity in carragenan-induced paw edema rat model assessed as reduction in edema thickness at 28 microg/kg, ip and measured after 4 hrs by digital Vernier caliper analysis. The format is functional. The arrangement: scale not given: the % may be the effect or the level left. As to conditions: dose 28 µg/kg.
Assay [13] has as its target T1, Prostaglandin G/H synthase 2. In words: Inhibition of recombinant human COX-2 by enzyme immune assay.
Assay [14] concerns the target T2, Polyunsaturated fatty acid 5-lipoxygenase. In words: Inhibition of 5-LOX (unknown origin) by enzyme immune assay.
The nature of assay [15]: Selectivity index, ratio IC50 for inhibition of ovine COX-1 to IC50 for inhibition of recombinant human COX-2.
The subject of assay [16] is Rattus norvegicus. Description: Antiinflammatory activity in Wistar rat carragenan-induced paw edema model assessed as reduction in edema thickness at 50 mg/kg, po and measured after 2 hrs. The format is functional. The arrangement: scale not given: the % may be the effect or the level left.
For assay [17], the system named is Rattus norvegicus. Description: Antiinflammatory activity in po dosed Sprague-Dawley rat assessed as reduction in carragenan-induced paw edema and measured after 4 hrs by vernier caliper method. The format is functional. Also on record: scale not given: the % may be the effect or the level left.
The target of assay [18] is T2, Polyunsaturated fatty acid 5-lipoxygenase. Description: Inhibition of 5-LOX (unknown origin) by colorimetric assay.
In assay [19] the target is T1, Prostaglandin G/H synthase 2. Description: Inhibition of COX-2 (unknown origin) using arachidonic acid as substrate preincubated for 5 mins followed by substrate addition by colorimetric assay.
For assay [20] the target is unchanged. In words: Inhibition of COX-2 (unknown origin) using arachidonic acid as substrate preincubated for 5 mins followed by substrate addition and measured after 20 mins by colorimetric assay.
Assay [21] is described as follows: Inhibition of soybean 5-LOX using arachidonic acid as substrate preincubated for 5 mins followed by substrate addition and measured after 5 mins by microplate spectrophotometric analysis. The arrangement: species or system Glycine max.
The test system of another assay is DU-145. In words: Antiproliferative activity against human DU-145 cells assessed as reduction in cell viability incubated for 48 hrs by MTT assay. The assay is classed as functional, cell-based. Particulars: DU-145, 48 h.
Assay [22] has as its target T2, Polyunsaturated fatty acid 5-lipoxygenase. Description: Inhibition of 5-LOX (unknown origin).

The term IC50 denotes the point on the concentration scale where inhibition reaches its midpoint. `CON(C)C(=O)c1ccc(-c2nc(CSc3nc4ccccc4s3)no2)cc1`: the IC50 in assay [1] is 7.6 µM; in [2], 5.1 µM.
With `CC1=CCCC2C1(C)CCC(C)C2(C)CCC1=CC(=O)OC1O` (stereo not given), the IC50 in [3] was 10.3 µM; in [4] it was 14.4 µM.
`COc1cc(C(=O)O)cc(O)c1O` returned an IC50 in assay [5] of 23.4 µM.
In the case of `COc1cccc(/C=c2\c(=O)[nH]n3c(=O)c4ccccc4nc23)c1`, the IC50 came to 600 nM in assay [6], 488 nM in assay [7] and 1480 nM in assay [8].
Turning to `COc1cc(/C=c2\c(=O)[nH]n3c(=O)c4ccccc4nc23)cc(OC)c1OC`, the IC50 in assay [6] came out at 2300 nM; in [7], 47 nM; in assay [8], 668 nM.
Regarding `CCCCC(=O)OCC[C@@H]1CC=C[C@@H]2[C@H]1C(=O)O[C@@]2(C)CO`, the IC50 in [9] is 2.38 mM; in assay [10] it was 2.58 mM.
On to `Oc1cc(O)cc(/C=C/c2ccc(O)c(O)c2)c1` [PICEATANNOL], for which, in assay [11], the IC50 amounted to 390 nM.
Take `O=C(NC1CCCCC1)c1cc(NCc2cc(O)ccc2O)ccc1O`: in the assay on Rattus norvegicus [12], the Activity is 114.12%. The IC50 in assay [13] is 100 nM.
`O=C(O)c1ccc(O)c(O)c1` [PROTOCATECHUIC ACID] had a concentration for half-maximal inhibition (IC50) in assay [5] of 25.4 µM.
In the case of `O=C(NC1CCCCC1)c1cc(/N=C/c2cc(O)ccc2O)ccc1O`, the values for the IC50 in assay [13] and in assay [14] were 110 nM and 11.3 µM, respectively. Besides, the Ratio IC50 in assay [15] was 120.
With `Nc1ccc(O)c(C(=O)NC2CCCCC2)c1`, the Activity in the assay on Rattus norvegicus [12] is reported as 102%.
`CC(C)NC(=O)c1cc(N)ccc1O` came in with an IC50 in assay [14] of 3.41 µM.
Turning to `CCCCNC(=O)c1cc(NCc2cc(O)ccc2O)ccc1O`, the Activity in the assay on Rattus norvegicus [12] is on record as 40.05%. For the same compound, the figures for the IC50 in [13] and in assay [14] were 100 nM and 10.5 µM, respectively. Further, the Ratio IC50 in assay [15] amounted to 135.
As for `Cc1ccc(-c2cc(C(F)(F)F)nn2-c2ccc(S(N)(=O)=O)cc2)cc1` [CELECOXIB], the Activity with Rattus norvegicus [16] is given as 15.7%; in the assay on Rattus norvegicus [17] it was 73.56%.
Consider `CC1=NN(c2ccccc2C(=O)O)C(=O)/C1=N/Nc1ccc(S(N)(=O)=O)cc1`, for which the IC50 in assay [18] was determined as 520 nM; in assay [19], 720 nM. For the same compound, the Activity in the assay on Rattus norvegicus [16] worked out at 72.72%.
With `COc1ccc(/C=c2\c(=O)[nH]n3c(=O)c4ccccc4nc23)cc1OC`, the IC50 in [6] was 1000 nM; in assay [7], 284 nM; in assay [8], 684 nM.
Regarding `CC(=O)OC[C@@H]1O[C@@H](n2cc(CNC(=O)C(=O)c3cn(S(=O)(=O)c4ccc(C)cc4)c4ccccc34)nn2)[C@H](OC(C)=O)[C@@H](OC(C)=O)[C@H]1OC(C)=O`, the IC50 is 120 nM in [20], 7.46 µM in assay [21] and 18.5 µM in the assay on DU-145.
On to `COc1ccc(-c2nc(-c3cn(C)c4ccccc34)c(C(=O)c3ccc(C#N)cc3)s2)cc1OC`, for which the values for the IC50 in [5] and in [22] were 2.1 µM and 1.37 µM, respectively.
Consider `O=C1N/C(=N\c2nc(-c3ccccc3)cs2)S/C1=C\c1ccc(Cl)cc1`, for which the 50% inhibitory concentration (IC50) in assay [22] amounted to 54 µM.
